Measured values reported in ChEMBL document CHEMBL5131467, “Multivalent peptide dendrimers inhibit the fusion of viral-cellular membranes and the cellular NF-κB signaling pathway” (Eur J Med Chem, 2022).
The source made the active and inactive calls. The calls are words filed in the database; no cut-off is given here. Where a SMILES comes first, the peptide text is derived from it. Bridges are numbered along the chain shown (N, C = ends). Roman numbers before positions name the chains, in order. Side-chain parts run from the residue outwards. The star is where a group is joined. Fmoc = O=C(OCC1c2ccccc2-c2ccccc21)*

Legend:
Influenza A virus [1] = experiment: Antiviral activity against Influenza A virus (A/Puerto Rico/8/1934(H1N1)) infected in MDCK cells assessed as reduction in virus induced cytopathic effect during infection incubated for 1 hr by MTT assay; type: functional, organism-based
[2] = Cytotoxicity against MDCK cells by CCK-8 assay; type: toxicity, cell-based, Canis lupus familiaris; settings: dog
[3] = Selectivity index, ratio of CC50 for MDCK cells to IC50 antiviral activity against Influenza A virus (A/Puerto Rico/8/1934(H1N1)) infected in MDCK cells assessed as reduction in virus induced cytopathic effect pre-treated with virus; type: toxicity, cell-based; settings: dog, read-out: Selectivity Index
Influenza A virus [4] = experiment: Antiviral activity against Influenza A virus A/FM/1/47 infected in MDCK cells incubated for 1 hr by MTT assay; type: functional, organism-based; settings: A/FM/1/47, MDCK
Influenza A virus [5] = experiment: Antiviral activity against Influenza A virus 699(H3) clinical isolate infected in MDCK cells incubated for 1 hr by MTT assay; type: functional, organism-based
Influenza A virus [6] = experiment: Antiviral activity against Influenza A virus (A/Puerto Rico/8/1934(H1N1)) infected in MDCK cells assessed as reduction in viral nucleoprotein expression level at 2 ug/ml pre-treated with virus measured after 24 hrs post infection by indirect immunofluorescence assay; type: functional, organism-based; settings: dose 2.0 µg/ml
RAW264.7 [7] = experiment: Anti-inflammatory activity against mouse RAW264.7 cells assessed as reduction in LPS induced IL-6 level at 1 ug/ml by qRT-PCR analysis; type: functional, cell-based; settings: dose 1.0 µg/ml
RAW264.7 [8] = experiment: Anti-inflammatory activity against mouse RAW264.7 cells assessed as reduction in LPS induced TNF alpha level at 1 ug/ml by ELISA method; type: functional; settings: dose 1 µg/ml
RAW264.7 [9] = experiment: Anti-inflammatory activity against mouse RAW264.7 cells assessed as reduction in Influenza A virus (A/Puerto Rico/8/1934(H1N1)) induced TNF alpha level at 5 ug/ml by ELISA method; type: functional; settings: dose 5 µg/ml
[10] = Tmax in Kunming mouse at 10 mg/kg, ip by HPLC analysis; type: ADME, organism-based; settings: in vivo
Mus musculus = experiment: Antiviral activity against Kunming mouse infected with Influenza A virus (A/Puerto Rico/8/1934(H1N1)) assessed as increase in body weight at 5 mg/kg, ip measured after 15 days (reference value: 178.7%); type: functional; settings: time 15 day
Influenza A virus [11] = experiment: Antiviral activity against Influenza A Puerto Rico/8/1934/H1N1 infected in human A549 cells assessed as inhibition of viral replication after 24 hrs by hemagglutination assay; type: functional, organism-based
Influenza A virus [12] = experiment: Antiviral activity against influenza A/Thailand/Kan353/2004 infected in MDCK cells assessed as inhibition of syncytium formation at 5 ug/ml incubated for 3 hrs by giemsa staining based assay relative to control; type: functional; parameters: scale not given: the % may be the effect or the level left; settings: dose 5 µg/ml
Influenza A virus [13] = experiment: Antiviral activity against influenza A/Thailand/Kan353/2004 infected in MDCK cells assessed as inhibition of syncytium formation at 2.5 ug/ml incubated for 3 hrs by giemsa staining based assay relative to control; type: functional; parameters: scale not given: the % may be the effect or the level left; settings: dose 2.5 µg/ml
Hemagglutinin = Hemagglutinin (Influenza A virus, UniProt B4URE7); experiment: Binding affinity to Influenza A Puerto Rico/8/1934/H1N1 hemagglutin assessed as dissociation constant by surface plasmon resonance assay
Chain of Hemagglutinin (B4URE7 whole entry): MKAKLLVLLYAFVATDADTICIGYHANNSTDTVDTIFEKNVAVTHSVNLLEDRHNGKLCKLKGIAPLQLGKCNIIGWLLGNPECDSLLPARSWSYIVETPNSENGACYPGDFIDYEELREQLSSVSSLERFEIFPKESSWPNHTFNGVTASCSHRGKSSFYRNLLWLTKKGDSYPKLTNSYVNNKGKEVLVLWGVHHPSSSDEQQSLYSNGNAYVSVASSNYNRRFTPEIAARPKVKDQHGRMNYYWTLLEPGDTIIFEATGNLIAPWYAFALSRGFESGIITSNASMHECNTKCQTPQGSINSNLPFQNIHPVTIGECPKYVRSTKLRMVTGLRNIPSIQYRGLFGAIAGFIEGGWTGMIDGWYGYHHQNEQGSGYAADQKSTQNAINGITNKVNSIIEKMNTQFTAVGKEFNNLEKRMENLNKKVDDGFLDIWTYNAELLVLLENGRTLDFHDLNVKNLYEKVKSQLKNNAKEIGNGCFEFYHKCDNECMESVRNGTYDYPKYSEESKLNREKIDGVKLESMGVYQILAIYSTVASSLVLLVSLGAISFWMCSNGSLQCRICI

NCCCC[C@H](NC(=O)OCC1c2ccccc2-c2ccccc21)C(=O)N[C@@H](CCCCN)C(=O)N[C@@H](Cc1c[nH]c2ccccc12)C(=O)N[C@@H](CCCCN)C(=O)NCCCC[C@H](NC(=O)[C@H](CCCCN)NC(=O)[C@H](Cc1c[nH]c2ccccc12)NC(=O)[C@H](CCCCN)NC(=O)[C@H](CCCCN)NC(=O)OCC1c2ccccc2-c2ccccc21)C(=O)NCCCC[C@H](NC(=O)[C@H](CCCCNC(=O)[C@H](CCCCN)NC(=O)[C@H](Cc1c[nH]c2ccccc12)NC(=O)[C@H](CCCCN)NC(=O)[C@H](CCCCN)NC(=O)OCC1c2ccccc2-c2ccccc21)NC(=O)[C@H](CCCCN)NC(=O)[C@H](Cc1c[nH]c2ccccc12)NC(=O)[C@H](CCCCN)NC(=O)[C@H](CCCCN)NC(=O)OCC1c2ccccc2-c2ccccc21)C(=O)NCC(=O)O (I: Fmoc-KKWKK([Lys-Trp-Lys-Lys-Fmoc])KG-OH / II: Fmoc-KKWKK([Lys-Trp-Lys-Lys-Fmoc]); amide I:6-II:C) showed an IC50 (Influenza A virus [1]) of 310 nM, a CC50 [2] of 37800 nM and a selectivity ratio [3] of 150. For the same compound, the IC50 (Influenza A virus [4]) was 170 nM, the IC50 (Influenza A virus [5]) was 120 nM and the Activity (Influenza A virus [6]) was “Active”. The Activity (RAW264.7 [7]) was “Active”, the Activity (RAW264.7 [8]) was 250.5 pg/mL and the Activity (RAW264.7 [9]) was 328.4 pg/mL. For the same compound, the Tmax [10] was 1.03 h, the Activity (Mus musculus) was 129.4% and the Activity (Influenza A virus [11]) was “Active”. The Activity (Influenza A virus [12]) was 90%, the Activity (Influenza A virus [13]) was 63% and the Kd (Hemagglutinin) was 0.00665 nM.
